Measured values reported in US8912190B2, “Substituted heterocyclic compounds” (Gilead Sciences, Inc., priority 2008, dated 2014).

What was measured:
[1] = target: T1, wild-type human cardiac sodium channel, hNav1.5 (Homo sapiens, UniProt Q14524); assay: Late INa screening assay (PatchXpress whole cell patch clamp); assay type: cell-based; conditions: HEK293 hNav1.5; for inhibition at 10 µM: compound at 10 uM, late INa generated with Tefluthrin or ATX II, read-out: Late INa 10 uM (percent block of late INa); for Late INa 1 uM (percent block of late INa): compound at 1 uM
T1 construct: host or cells: HEK293
Procedure: The late sodium current (Late INa) and peak sodium current (Peak INa) assays were performed on an automated electrophysiology platform, PatchXpress 7000A (MDS Analytical Technologies, Sunnyvale, Calif.), using the whole cell patch clamp technique to measure currents through the cell membrane of up to 16 cells at a time. The assay used an HEK293 (human embryonic kidney) cell line heterologously expressing the wild-type human cardiac sodium channel, hNav1.5, purchased from Millipore (Billerica, Mass.). No beta subunits were coexpressed with the Na channel alpha subunit. Cells were maintained with standard tissue culture procedures, and stable channel expression was maintained with 400 μg/ml Geneticin in the culture medium. Cells isolated for use on PatchXpress were incubated for 5 minutes in Versene 1× and then for 2 minutes in 0.0125% Trypsin-EDTA (both at 37° C.) to ensure that 80-90% of the cells are single and not part of a cell cluster. Experiments were carried out at 24-27° C.
For both the Late INa and Peak INa assays, series resistance compensation was set to 50% and whole-cell compensation was performed automatically. Currents were low-pass filtered at 10 kHz and digitized at 31.25 kHz. Currents through open sodium channels were automatically recorded and stored in the DataXpress2 database (MDS Analytical Technologies, Sunnyvale, Calif.). Analysis was performed using DataXpress2 analysis software and data are compiled in Excel.
Compound stocks were routinely made in glass vials to 10 mM in dimethyl sulfoxide (DMSO). In some cases, when compounds were not soluble in DMSO, they are made in 100% ethanol. Stocks were sonicated as necessary. The extracellular solution for screening Late INa was composed of: 140 mM NaCl, 4 mM KCl, 1.8 mM CaCl2, 0.75 mM MgCl2, and 5 mM HEPES with pH adjusted to 7.4 using NaOH. The extracellular solution for screening Peak INa was composed of: 20 mM NaCl, 120 mM N-methyl-D glucamine, 4 mM KCl, 1.8 mM CaCl2, 0.75 mM MgCl2, and 5 mM HEPES with pH adjusted to 7.4 using HCl. The intracellular solution used to perfuse the inside of the cells for both the Late INa and Peak INa assays contained: 120 mM CsF, 20 mM CsCl, 5 mM EGTA, 5 mM HEPES and pH adjusted to 7.4 with CsOH. Compounds were diluted in extracellular solution to […] in glass vials and then transferred to glass well plates before robotic addition to the cells. The 0Na extracellular solution used at the end of each experiment for the Late INa and Peak INa assays to measure baseline current contained: 140 mM N-methyl-D-glucamine; 4 mM KCl; 1.8 mM CaCl2; 0.75 mM MgCl2; 5 mM HEPES and pH was adjusted to 7.4 with HCl.
For the Late INa assay, sodium channels were activated every 10 seconds (0.1 Hz) by depolarizing the cell membrane to −20 mV for 250 milliseconds (ms) from a holding potential of −120 mV. In response to a −20 mV voltage step, typical Nav1.5 sodium currents activated rapidly to a peak negative current and then inactivated nearly completely within 3-4 ms.
All compounds were tested to determine their activity in blocking the late sodium current. Late INa current was generated by adding 10 μM Tefluthrin (pyrethroid) to the extracellular solution while recording Na currents. For some experiments, 50 nM ATX II (sea anemone toxin), another late INa activator, was used to generate the late component. Both activators generated late components that are large, and thus block of the late component by compounds could be measured easily. For the purposes of the screening, late INa is defined as the mean current between 225 ms and 250 ms after stepping to −20 mV to activate Na channels. After establishing the whole cell recording configuration, late INa activators were added to each well 4 times over a 16-17 minute period so that the late component of the Na current reached a stable value. Compounds were then added (typically at 10 μM), in the presence of late INa activator, with 3 additions over the course of 7 or 8 minutes. […]

[2] = target: T2, hERG potassium channel (Homo sapiens, UniProt Q12809); assay: hERG screening assay (PatchXpress patch clamp, CHO cells); assay type: cell-based; conditions: CHO cells expressing hERG; for HERG 1 uM (block of hERG current): compound at 1 uM; for HERG 10 uM (block of hERG current): compound at 10 uM
T2 construct: expressed in transfected cells; host or cells: CHO (Chinese Hamster Ovary)
Procedure: Compounds were screened to test their activity in blocking the hERG potassium channel. The hERG channel is heterologously expressed in a CHO (Chinese Hamster Ovary) cell line. Cells were maintained with standard tissue culture procedures and stable channel expression was maintained with 500 μg/ml G418 in the culture medium. Cells were harvested for testing on the PatchXpress automated patch clamp with Accumax (Innovative Cell Technologies, San Diego, Calif.) to isolate single cells.
The following solutions were used for electrophysiological recordings. The external solution contained: 2 mM CaCl2; 2 mM MgCl2; 4 mM KCl; 150 mM NaCl; 10 mM Glucose; 10 mM HEPES (pH 7.4 with 1M NaOH, osmolarity). The internal solution contained: 140 mM KCl, 10 mM MgCl2, 6 mM EGTA, 5 mM HEPES, 5 mM ATP (pH adjusted to 7.25 with KOH).
hERG channels were activated when the voltage was stepped to +20 mV from the −80 mV holding potential. During a 5 second step at +20 mV, the channels activated and then largely inactivated, so the currents were relatively small. Upon returning to −50 mV from +20 mV, hERG currents transiently became much larger as inactivation was rapidly removed and then the channel closed. The first step to −50 mV for 300 ms was used as a baseline for measuring the peak amplitude during the step to −50 mV after channel activation. The peak current at −50 mV was measured both under control conditions and after addition of compound.
All compounds were prepared as 10 mM DMSO stocks in glass vials. Stock solutions were mixed by vigorous vortexing and sonication for about 2 minutes at room temperature. For testing, compounds were diluted in glass vials using an intermediate dilution step in pure DMSO and then further diluted to working concentrations in external solution. Dilutions were prepared no longer than 20 minutes before use.
After achieving the whole-cell configuration, cells were monitored for 90 seconds to assess stability and washed with external solution for 66 seconds. The voltage protocol described above was then applied to the cells every 12 seconds and throughout the whole procedure. Only cells with stable recording parameters and meeting specified health criteria were allowed to enter the compound addition procedure.
External solution containing 0.1% DMSO (vehicle) was applied to the cells first to establish the control peak current amplitude. After allowing the current to stabilize for […], 1 μM and then 10 μM test compounds were applied. Each compound concentration was added 4 times and cells were kept in test solution until the effect of the compound reached steady state or for a maximum of 12 minutes. After addition of test compound, a positive control (1 μM Cisapride) was added, and must block >95% of the current for the experiment to be considered valid. Washout in the external solution compartment was performed until the recovery of the current reached steady state. Data was analyzed using DataXpress, Clampfit (Molecular Devices, Inc., Sunnyvale) and Origin 7 (Originlab Corp.)

T1 sequence (Q14524 whole entry): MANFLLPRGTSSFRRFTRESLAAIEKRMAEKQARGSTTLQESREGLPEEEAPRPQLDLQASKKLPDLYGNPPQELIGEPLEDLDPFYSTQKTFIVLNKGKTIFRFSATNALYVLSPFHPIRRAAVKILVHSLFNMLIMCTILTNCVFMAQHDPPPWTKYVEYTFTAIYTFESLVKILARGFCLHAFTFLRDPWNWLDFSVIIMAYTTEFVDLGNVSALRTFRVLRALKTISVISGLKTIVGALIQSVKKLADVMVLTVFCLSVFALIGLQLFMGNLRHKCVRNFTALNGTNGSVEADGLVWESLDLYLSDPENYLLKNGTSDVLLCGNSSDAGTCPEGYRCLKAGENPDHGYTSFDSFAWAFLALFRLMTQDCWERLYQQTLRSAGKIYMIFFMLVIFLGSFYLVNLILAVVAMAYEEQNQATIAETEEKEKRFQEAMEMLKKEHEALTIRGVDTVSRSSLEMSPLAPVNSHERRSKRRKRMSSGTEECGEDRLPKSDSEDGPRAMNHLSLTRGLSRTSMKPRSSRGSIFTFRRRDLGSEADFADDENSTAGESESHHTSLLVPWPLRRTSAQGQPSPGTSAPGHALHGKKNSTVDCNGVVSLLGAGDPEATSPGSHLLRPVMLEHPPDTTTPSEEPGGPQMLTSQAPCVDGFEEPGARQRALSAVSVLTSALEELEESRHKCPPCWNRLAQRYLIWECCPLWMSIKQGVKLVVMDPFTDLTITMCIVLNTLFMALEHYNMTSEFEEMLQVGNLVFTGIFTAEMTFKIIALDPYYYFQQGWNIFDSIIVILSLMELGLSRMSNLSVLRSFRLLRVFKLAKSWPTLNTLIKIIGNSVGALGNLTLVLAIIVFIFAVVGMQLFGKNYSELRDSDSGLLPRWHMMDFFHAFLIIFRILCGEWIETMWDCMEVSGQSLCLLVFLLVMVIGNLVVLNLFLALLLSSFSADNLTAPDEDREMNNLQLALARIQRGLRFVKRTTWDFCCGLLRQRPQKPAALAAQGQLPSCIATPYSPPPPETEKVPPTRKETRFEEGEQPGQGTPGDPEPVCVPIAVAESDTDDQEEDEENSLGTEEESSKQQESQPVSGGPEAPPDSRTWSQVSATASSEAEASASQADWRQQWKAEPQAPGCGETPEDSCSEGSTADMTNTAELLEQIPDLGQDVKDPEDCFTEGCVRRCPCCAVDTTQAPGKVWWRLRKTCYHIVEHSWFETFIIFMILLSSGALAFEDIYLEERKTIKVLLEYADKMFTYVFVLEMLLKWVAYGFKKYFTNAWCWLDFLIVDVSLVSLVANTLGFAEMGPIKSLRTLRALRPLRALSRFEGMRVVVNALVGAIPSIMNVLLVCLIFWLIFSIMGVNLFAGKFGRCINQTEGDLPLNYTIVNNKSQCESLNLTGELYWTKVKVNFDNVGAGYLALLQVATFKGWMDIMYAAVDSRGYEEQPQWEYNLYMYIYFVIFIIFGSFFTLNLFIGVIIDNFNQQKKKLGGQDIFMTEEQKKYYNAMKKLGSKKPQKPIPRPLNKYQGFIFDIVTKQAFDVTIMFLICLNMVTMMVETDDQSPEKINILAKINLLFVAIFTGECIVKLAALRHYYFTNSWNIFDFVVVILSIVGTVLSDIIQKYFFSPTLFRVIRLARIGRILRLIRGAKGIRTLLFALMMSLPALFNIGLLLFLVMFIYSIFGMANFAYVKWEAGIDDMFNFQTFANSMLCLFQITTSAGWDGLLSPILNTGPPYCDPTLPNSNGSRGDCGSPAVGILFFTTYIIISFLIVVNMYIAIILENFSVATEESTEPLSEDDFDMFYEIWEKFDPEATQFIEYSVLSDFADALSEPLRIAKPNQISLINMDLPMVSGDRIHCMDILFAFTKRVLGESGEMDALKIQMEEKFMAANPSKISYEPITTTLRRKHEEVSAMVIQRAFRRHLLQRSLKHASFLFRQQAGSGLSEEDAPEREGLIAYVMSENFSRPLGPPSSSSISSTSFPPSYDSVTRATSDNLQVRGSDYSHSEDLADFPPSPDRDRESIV
T2 sequence (Q12809 whole entry): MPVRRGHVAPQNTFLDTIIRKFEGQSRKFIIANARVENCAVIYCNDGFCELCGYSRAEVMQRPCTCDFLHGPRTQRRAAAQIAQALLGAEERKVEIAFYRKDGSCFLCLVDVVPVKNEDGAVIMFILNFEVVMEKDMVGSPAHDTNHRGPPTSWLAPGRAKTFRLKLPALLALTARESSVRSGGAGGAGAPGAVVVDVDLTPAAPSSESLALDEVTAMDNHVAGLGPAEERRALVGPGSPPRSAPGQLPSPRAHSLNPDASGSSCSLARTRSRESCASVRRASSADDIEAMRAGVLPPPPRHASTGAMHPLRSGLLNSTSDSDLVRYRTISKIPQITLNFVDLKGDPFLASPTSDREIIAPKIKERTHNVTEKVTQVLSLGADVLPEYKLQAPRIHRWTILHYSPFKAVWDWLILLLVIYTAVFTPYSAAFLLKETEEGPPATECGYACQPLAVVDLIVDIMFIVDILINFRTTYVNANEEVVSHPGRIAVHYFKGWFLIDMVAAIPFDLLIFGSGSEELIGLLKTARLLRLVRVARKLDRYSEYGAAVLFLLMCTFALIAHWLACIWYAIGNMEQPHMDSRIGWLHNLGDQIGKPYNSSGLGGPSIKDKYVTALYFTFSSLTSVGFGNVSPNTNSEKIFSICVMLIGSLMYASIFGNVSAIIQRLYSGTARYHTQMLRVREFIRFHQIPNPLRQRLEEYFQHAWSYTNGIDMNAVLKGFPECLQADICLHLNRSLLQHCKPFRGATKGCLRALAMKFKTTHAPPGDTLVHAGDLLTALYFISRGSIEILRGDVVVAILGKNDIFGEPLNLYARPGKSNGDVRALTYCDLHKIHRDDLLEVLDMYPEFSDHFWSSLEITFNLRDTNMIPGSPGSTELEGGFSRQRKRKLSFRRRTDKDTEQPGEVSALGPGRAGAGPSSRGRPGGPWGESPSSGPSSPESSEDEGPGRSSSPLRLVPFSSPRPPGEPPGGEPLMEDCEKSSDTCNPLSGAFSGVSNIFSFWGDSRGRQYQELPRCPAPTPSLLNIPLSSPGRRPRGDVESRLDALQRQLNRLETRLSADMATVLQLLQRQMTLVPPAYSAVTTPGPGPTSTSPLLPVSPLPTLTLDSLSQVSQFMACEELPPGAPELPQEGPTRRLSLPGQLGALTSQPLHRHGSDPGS

| SMILES | inhibition at 10 µM [1] | HERG 1 uM (block of hERG current) [2] | HERG 10 uM (block of hERG current) [2] | Late INa 1 uM (percent block of late INa) [1] |
| --- | --- | --- | --- | --- |
| Cc1nc2cc(-c3ccc(OC(F)(F)F)cc3)ccc2n(C)c1=O [1,3-dimethyl-6-[4-(trifluoromethoxy)phenyl] quinoxalin-2(1H)-one] | 33.7% | – | – | – |
| CCOC(=O)c1nc2ccc(-c3cccc(OC(F)(F)F)c3)cc2n(C)c1=O [ethyl 4-methyl-3-oxo-6-[3-(trifluoromethoxy)phenyl]-3,4-dihydroquinoxaline-2-carboxylate] | 54.3% | – | – | – |
| CCOC(=O)c1nc2ccc(-c3ccc(OC(F)(F)F)cc3)cc2n(C)c1=O [ethyl 4-methyl-3-oxo-6-[4-(trifluoromethoxy)phenyl]-3,4-dihydroquinoxaline-2-carboxylate] | 49.3% | 34.0% | 79.5% | – |
| Cn1c(=O)c(C(F)(F)F)nc2cc(-c3cccc(OC(F)(F)F)c3)ccc21 [1-methyl-6-[3-(trifluoromethoxy)phenyl]-3-(trifluoromethyl)quinoxalin-2(1H)-one] | 31.6% | – | – | – |
| Cn1c(=O)c(C(F)(F)F)nc2cc(-c3cccc(C(F)(F)F)c3)ccc21 [1-methyl-3-(trifluoromethyl)-6-[3-(trifluoromethyl)phenyl] quinoxalin-2(1H)-one] | 24% | – | – | – |
| Cn1c(=O)c(C(C)(C)C)nc2ccc(-c3ccc(OC(F)(F)F)cc3)cc21 [3-tert-butyl-1-methyl-7-[4-(trifluoromethoxy)phenyl] quinoxalin-2(1H)-one] | 44.6% | – | – | – |
| Cc1nc2ccc(-c3ccc(OC(F)(F)F)cc3)cc2n(C)c1=O [1,3-dimethyl-7-[4-(trifluoromethoxy)phenyl] quinoxalin-2(1H)-one] | 61.7% | – | – | 31.0% |
| Cc1nc2ccc(-c3ccc(C(F)(F)F)cc3)cc2n(C)c1=O [1,3-dimethyl-7-[4-(trifluoromethyl)phenyl] quinoxalin-2(1H)-one] | 58.3% | 25.0% | 69.5% | – |
| CC(C)c1nc2ccc(-c3cccc(OC(F)(F)F)c3)cc2n(C)c1=O [1-methyl-3-(propan-2-yl)-7-[3-(trifluoromethoxy)phenyl] quinoxalin-2(1H)-one] | 49.9% | – | – | – |
| Cn1c(=O)c(C(C)(C)O)nc2ccc(-c3ccc(OC(F)(F)F)cc3)cc21 [3-(2-hydroxypropan-2-yl)-1-methyl-7-[4-(trifluoromethoxy)phenyl] quinoxalin-2(1H)-one] | 54% | 19.5% | 76.0% | – |
| Cc1nc2cc(-c3ccc(F)c(F)c3)ccc2n(C)c1=O [6-(3,4-difluorophenyl)-1,3-dimethylquinoxalin-2(1H)-one] | 14.3% | – | – | – |
| CC(C)c1nc2ccc(-c3ccc(OC(F)(F)F)cc3)cc2n(C)c1=O [1-methyl-3-(propan-2-yl)-7-[4-(trifluoromethoxy)phenyl] quinoxalin-2(1H)-one] | 60.3% | 10.0% | 10.0% | 31.3% |
| Cn1c(=O)cnc2ccc(-c3ccc(F)c(F)c3)cc21 [7-(3,4-difluorophenyl)-1-methylquinoxalin-2(1H)-one] | 17.5% | – | – | – |
| Cn1c(=O)c(C(C)(C)C)nc2ccc(-c3cccc(OC(F)(F)F)c3)cc21 [3-tert-butyl-1-methyl-7-[3-(trifluoromethoxy)phenyl] quinoxalin-2(1H)-one] | 77.5% | 10.0% | 10.0% | 51.3% |
| Cn1c(=O)c(C(F)(F)F)nc2cc(-c3ccc(OC(F)(F)F)cc3)ccc21 [1-methyl-6-[4-(trifluoromethoxy)phenyl]-3-(trifluoromethyl)quinoxalin-2(1H)-one] | 39.9% | 10.0% | 47.5% | – |
| CC(C)(C)c1nc2ccc(-c3cccc(OC(F)(F)F)c3)cc2n(CCNC(=O)CO)c1=O [N-(2-{3-tert-butyl-2-oxo-7-[3-(trifiuoromethoxy)phenyl]quinoxalin-1(2H)-yl}ethyl)-2-hydroxyacetamide] | 58.1% | – | – | – |
| O=C(CO)NCCn1c(=O)c(C(F)(F)F)nc2ccc(-c3ccc(OC(F)(F)F)cc3)cc21 [2-hydroxy-N-(2-{2-oxo-7-[4-(trifiuoromethoxy)phenyl]-3-(trifluoromethyl)quinoxalin-1(2H)-yl}ethyl)acetamide] | 19% | – | – | – |
| Cn1c(=O)cnc2ccc(-c3ccc(OC(F)(F)F)cc3)cc21 [1-methyl-7-[4-(trifluoromethoxy)phenyl] quinoxalin-2(1H)-one] | 51.6% | 10.00% | 41.5% | – |
| Cc1nc2ccc(-c3cccc(C(F)(F)F)c3)cc2n(C)c1=O [1,3-dimethyl-7-[3-(trifluoromethyl)phenyl] quinoxalin-2(1H)-one] | 45.5% | – | – | – |
| Cn1c(=O)c(C(F)(F)F)nc2ccc(-c3ccc(OC(F)(F)F)cc3)cc21 [1-methyl-7-[4-(trifluoromethoxy)phenyl]-3-(trifluoromethyl)quinoxalin-2(1H)-one] | 38.7% | 10.00% | 39.0% | – |
